The compounds below were run on mock-infected MT-4 cells (assay: cytotoxicity in mock-infected MT-4 cells (MTT)). Settings: not given.
Method: (§1) A rapid, sensitive and automated assay procedure was used for the in vitro evaluation of anti-HIV agents. An […] T4-cell line, MT-4, which was previously shown (Koyanagi et al., Int. J Cancer, 36, 445-451, 1985) to be highly susceptible to and permissive for HIV infection, served as the target cell line. Inhibition of the HIV-induced cytopathic effect was used as the end point. The viability of both HIV- and mock-infected cells was assessed spectrophotometrically via the in situ reduction of 3-(4,5-dimethylthiazol-2-yl)-2,5-diphenyltetrazolium bromide (MTT). The 50% cytotoxic concentration (CC50 in M) was defined as the concentration of compound that reduced the absorbance of the mock-infected control sample by 50%. The percent protection achieved by the compound in HIV-infected cells was calculated by the following formula:
(§2) [formula] whereby (ODT)HIV is the optical density measured with a given concentration of the test compound in HIV-infected cells; (ODC)HIV is the optical density measured for the control untreated HIV-infected cells; (ODC)MOCK is the optical density measured for the control untreated mock-infected cells; all optical density values were determined at 540 nm. The dose achieving 50% protection according to the above formula was defined as the 50% inhibitory concentration (IC50 in M). The ratio of CC50 to IC50 was defined as the selectivity index (SI).
(§3) Table 6 lists the pIC50 (−log IC50), pCC50 (−log CC50) and pSI (pCC50-pIC50) values for the compounds of formula (I).

SMILES	pCC50 (−log CC50)
COc1cc(CCC#N)ccc1Nc1ccnc(Nc2ccc(C#N)cc2)n1 [Compound 251]	5 M
CCN(C)C(=O)/C=C/c1cc(C)c(Oc2ccnc(Nc3ccc(C#N)cc3)n2)c(C)c1 [Compound 215]	5.5 M
C/C(C#N)=C/c1cc(C)c(Nc2ccnc(Nc3ccc(C#N)cc3)n2)c(C)c1 [Compound 152]	4.8 M
Cc1cc(CN(C)CCC#N)cc(Br)c1Nc1ccnc(Nc2ccc(C#N)cc2)n1 [Compound 241]	5.3 M
C/C(C#N)=C/c1cc(C)c(Oc2ccnc(Nc3ccc(C#N)cc3)n2)c(C)c1 [Compound 178]	5.7 M
Cc1cc(CC#N)cc(Cl)c1Nc1ccnc(Nc2ccc(C#N)cc2)n1 [Compound 238]	5.6 M
COc1cc(C=C(C)C#N)ccc1Nc1ccnc(Nc2ccc(C#N)cc2)n1 [Compound 249]	4 M
Cc1cc(/C=C/C#N)ccc1Nc1ccnc(Nc2ccc(C#N)cc2)n1 [Compound 237]	<4.0 M
C/C(C#N)=C/c1cc(C)c(Nc2ccnc(Nc3ccc(C#N)cc3)n2)c(C)c1 [Compound 11]	5.7 M
Cc1cc(CCC#N)ccc1Nc1ccnc(Nc2ccc(C#N)cc2)n1 [Compound 227]	<4.0 M
CC(C#N)=Cc1ccc(Nc2ccnc(Nc3ccc(C#N)cc3)n2)c(C)c1 [Compound 229]	<4.0 M
Cc1cc(/C=C\C#N)cc(C)c1Nc1ccnc(Nc2ccc(C#N)cc2)n1 [Compound 10]	6.3 M
CC(C#N)=Cc1cc(C)c(Nc2ccnc(Nc3ccc(C#N)cc3)n2)c(Br)c1 [Compound 247]	6.2 M
CC(C#N)=Cc1ccc(Oc2ccnc(Nc3ccc(C#N)cc3)n2)c(C)c1 [Compound 231]	<4.0 M
N#C/C=C/c1ccc(Nc2ccnc(Nc3ccc(C#N)cc3)n2)c(Br)c1 [Compound 244]	4 M
C/C(C#N)=C\c1cc(C)c(Oc2ccnc(Nc3ccc(C#N)cc3)n2)c(C)c1 [Compound 179]	<4.0 M
CC(=CC#N)c1ccc(Oc2ccnc(Nc3ccc(C#N)cc3)n2)c(C)c1 [Compound 232]	<4.0 M
Cc1cc(CC(C)C#N)ccc1Oc1ccnc(Nc2ccc(C#N)cc2)n1 (stereo not shown) [Compound 236]	<4.0 M
COc1cc(/C=C/C#N)ccc1Nc1ccnc(Nc2ccc(C#N)cc2)n1 [Compound 245]	4 M
Cc1cc(/C=C/C(=O)N(C)CCC#N)cc(C)c1Oc1ccnc(Nc2ccc(C#N)cc2)n1 [Compound 214]	5.1 M
CC/C(=C\C#N)c1cc(C)c(Nc2ccnc(Nc3ccc(C#N)cc3)n2)c(C)c1 [Compound 148]	4.9 M
Cc1cc(/C=C/C(=O)N(C)CC#N)cc(C)c1Oc1ccnc(Nc2ccc(C#N)cc2)n1 [Compound 212]	5 M

Each compound was assayed on HIV (assay: microbe, parasite or virus in culture). Settings: HIV-infected MT-4 cells; dose achieving 50% protection; MTT, OD 540 nm.
Method: as §1, §2, §3

SMILES	pIC50 (−log IC50)
COc1cc(CCC#N)ccc1Nc1ccnc(Nc2ccc(C#N)cc2)n1 [Compound 251]	8.9
CCN(C)C(=O)/C=C/c1cc(C)c(Oc2ccnc(Nc3ccc(C#N)cc3)n2)c(C)c1 [Compound 215]	9.1
C/C(C#N)=C/c1cc(C)c(Nc2ccnc(Nc3ccc(C#N)cc3)n2)c(C)c1 [Compound 152]	9.1
Cc1cc(CN(C)CCC#N)cc(Br)c1Nc1ccnc(Nc2ccc(C#N)cc2)n1 [Compound 241]	9.4
C/C(C#N)=C/c1cc(C)c(Oc2ccnc(Nc3ccc(C#N)cc3)n2)c(C)c1 [Compound 178]	8.8
Cc1cc(CC#N)cc(Cl)c1Nc1ccnc(Nc2ccc(C#N)cc2)n1 [Compound 238]	9.5
COc1cc(C=C(C)C#N)ccc1Nc1ccnc(Nc2ccc(C#N)cc2)n1 [Compound 249]	8.5
Cc1cc(/C=C/C#N)ccc1Nc1ccnc(Nc2ccc(C#N)cc2)n1 [Compound 237]	8.9
C/C(C#N)=C/c1cc(C)c(Nc2ccnc(Nc3ccc(C#N)cc3)n2)c(C)c1 [Compound 11]	9.2
Cc1cc(CCC#N)ccc1Nc1ccnc(Nc2ccc(C#N)cc2)n1 [Compound 227]	9.5
CC(C#N)=Cc1ccc(Nc2ccnc(Nc3ccc(C#N)cc3)n2)c(C)c1 [Compound 229]	8.8
CC(C#N)=Cc1cc(C)c(Nc2ccnc(Nc3ccc(C#N)cc3)n2)c(Br)c1 [Compound 247]	9.2
CC(C#N)=Cc1ccc(Oc2ccnc(Nc3ccc(C#N)cc3)n2)c(C)c1 [Compound 231]	9.2
N#C/C=C/c1ccc(Nc2ccnc(Nc3ccc(C#N)cc3)n2)c(Br)c1 [Compound 244]	9.2
C/C(C#N)=C\c1cc(C)c(Oc2ccnc(Nc3ccc(C#N)cc3)n2)c(C)c1 [Compound 179]	8.9
CC(=CC#N)c1ccc(Oc2ccnc(Nc3ccc(C#N)cc3)n2)c(C)c1 [Compound 232]	8.4
Cc1cc(CC(C)C#N)ccc1Oc1ccnc(Nc2ccc(C#N)cc2)n1 (stereo not shown) [Compound 236]	8.8
COc1cc(/C=C/C#N)ccc1Nc1ccnc(Nc2ccc(C#N)cc2)n1 [Compound 245]	8.8
Cc1cc(/C=C/C(=O)N(C)CCC#N)cc(C)c1Oc1ccnc(Nc2ccc(C#N)cc2)n1 [Compound 214]	8.6
CC/C(=C\C#N)c1cc(C)c(Nc2ccnc(Nc3ccc(C#N)cc3)n2)c(C)c1 [Compound 148]	8.8
Cc1cc(/C=C/C(=O)N(C)CC#N)cc(C)c1Oc1ccnc(Nc2ccc(C#N)cc2)n1 [Compound 212]	9.1
Cc1cc(C=CC#N)cc(C)c1Oc1ccnc(Nc2ccc(C#N)cc2)n1 [Compound 25]	9

Same assay, conditions: Human immunodeficiency virus 1, MT4, read-out: pIC50 (−log IC50), HIV-infected MT-4 cells (converted); dose achieving 50% protection; MTT, OD 540 nm

SMILES	IC50
Cc1cc(/C(Cl)=C\C#N)cc(C)c1Nc1ccnc(Nc2ccc(C#N)cc2)n1 [Compound 124]	3.16 nM
Cc1cc(-c2ccco2)cc(C)c1Nc1ccnc(Nc2ccc(C#N)cc2)n1 [Compound 3]	3.98 nM
Cc1cc(/C=C/C(=O)N(C)C2CCN(C)CC2)cc(C)c1Oc1ccnc(Nc2ccc(C#N)cc2)n1 [Compound 210]	5.01 nM
Cc1cc(/C=C/C(=O)N2CCOCC2)cc(C)c1Oc1ccnc(Nc2ccc(C#N)cc2)n1 [Compound 216]	6.31 nM
Cc1cc(/C=C/C(=O)N2CCOCC2)cc(C)c1Nc1ccnc(Nc2ccc(C#N)cc2)n1 [Compound 156]	20 nM
Cc1cc(/C=C/c2cccnc2)cc(C)c1Nc1ccnc(Nc2ccc(C#N)cc2)n1 [Compound 145]	2 nM
CC(=O)c1cccc(-c2cc(C)c(Nc3ccnc(Nc4ccc(C#N)cc4)n3)c(C)c2)c1 [Compound 34]	10 nM
CO/N=C(\c1cc(C)c(Nc2ccnc(Nc3ccc(C#N)cc3)n2)c(C)c1)C(C)C [Compound 9]	1.58 nM
Cc1cc(/C=C(\C#N)c2cccs2)cc(C)c1Nc1ccnc(Nc2ccc(C#N)cc2)n1 [Compound 49]	10 nM
Cc1cc(-n2cccc2)cc(C)c1Oc1ccnc(Nc2ccc(C#N)cc2)n1 [Compound 118]	3.98 nM
Cc1cc(CN2CCSC2)cc(C)c1Nc1ccnc(Nc2ccc(C#N)cc2)n1 [Compound 78]	3.98 nM
Cc1cc(/C=C/C(=O)N2CC=CC2)cc(C)c1Oc1ccnc(Nc2ccc(C#N)cc2)n1 [Compound 209]	2.51 nM
Cc1cc(C(O)CC#N)cc(C)c1Nc1ccnc(Nc2ccc(C#N)cc2)n1 (stereo not shown) [Compound 18]	1.58 nM
Cc1cc(CCC#N)cc(C)c1Nc1ccnc(Nc2ccc(C#N)cc2)n1 [Compound 24]	0.794 nM
Cc1cc(Cn2ccnc2)cc(C)c1Nc1ccnc(Nc2ccc(C#N)cc2)n1 [Compound 70]	7.94 nM
CCN(Cc1ccncc1)Cc1cc(C)c(Nc2ccnc(Nc3ccc(C#N)cc3)n2)c(C)c1 [Compound 79]	10 nM
Cc1cc(-c2ccsc2)cc(C)c1Nc1ccnc(Nc2ccc(C#N)cc2)n1 [Compound 21]	3.98 nM
Cc1cc(/C=C/C(=O)N2CCN(C)CC2)cc(C)c1Nc1ccnc(Nc2ccc(C#N)cc2)n1 [Compound 155]	1.58 nM

Same assay, conditions: selectivity index, ratio of CC50 to IC50, as log difference

SMILES	pSI (pCC50-pIC50)
COc1cc(CCC#N)ccc1Nc1ccnc(Nc2ccc(C#N)cc2)n1 [Compound 251]	−3.9
CCN(C)C(=O)/C=C/c1cc(C)c(Oc2ccnc(Nc3ccc(C#N)cc3)n2)c(C)c1 [Compound 215]	−3.6
C/C(C#N)=C/c1cc(C)c(Nc2ccnc(Nc3ccc(C#N)cc3)n2)c(C)c1 [Compound 152]	−4.3
Cc1cc(/C(Cl)=C\C#N)cc(C)c1Nc1ccnc(Nc2ccc(C#N)cc2)n1 [Compound 124]	−3.8
Cc1cc(CN(C)CCC#N)cc(Br)c1Nc1ccnc(Nc2ccc(C#N)cc2)n1 [Compound 241]	−4.1
C/C(C#N)=C/c1cc(C)c(Oc2ccnc(Nc3ccc(C#N)cc3)n2)c(C)c1 [Compound 178]	−3.1
Cc1cc(CC#N)cc(Cl)c1Nc1ccnc(Nc2ccc(C#N)cc2)n1 [Compound 238]	−3.9
Cc1cc(-c2ccco2)cc(C)c1Nc1ccnc(Nc2ccc(C#N)cc2)n1 [Compound 3]	−2.9
COc1cc(C=C(C)C#N)ccc1Nc1ccnc(Nc2ccc(C#N)cc2)n1 [Compound 249]	−4.5
Cc1cc(/C=C/C#N)ccc1Nc1ccnc(Nc2ccc(C#N)cc2)n1 [Compound 237]	<−4.9
C/C(C#N)=C/c1cc(C)c(Nc2ccnc(Nc3ccc(C#N)cc3)n2)c(C)c1 [Compound 11]	−3.5
Cc1cc(CCC#N)ccc1Nc1ccnc(Nc2ccc(C#N)cc2)n1 [Compound 227]	<−5.5
Cc1cc(/C=C/C(=O)N(C)C2CCN(C)CC2)cc(C)c1Oc1ccnc(Nc2ccc(C#N)cc2)n1 [Compound 210]	−3.5
Cc1cc(/C=C/C(=O)N2CCOCC2)cc(C)c1Oc1ccnc(Nc2ccc(C#N)cc2)n1 [Compound 216]	−3.6
Cc1cc(/C=C/C(=O)N2CCOCC2)cc(C)c1Nc1ccnc(Nc2ccc(C#N)cc2)n1 [Compound 156]	−2.6
CC(C#N)=Cc1ccc(Nc2ccnc(Nc3ccc(C#N)cc3)n2)c(C)c1 [Compound 229]	<−4.8
Cc1cc(/C=C\C#N)cc(C)c1Nc1ccnc(Nc2ccc(C#N)cc2)n1 [Compound 10]	−2.9
CC(C#N)=Cc1cc(C)c(Nc2ccnc(Nc3ccc(C#N)cc3)n2)c(Br)c1 [Compound 247]	−3
Cc1cc(/C=C/c2cccnc2)cc(C)c1Nc1ccnc(Nc2ccc(C#N)cc2)n1 [Compound 145]	−3.4
CC(C#N)=Cc1ccc(Oc2ccnc(Nc3ccc(C#N)cc3)n2)c(C)c1 [Compound 231]	<−5.2
CC(=O)c1cccc(-c2cc(C)c(Nc3ccnc(Nc4ccc(C#N)cc4)n3)c(C)c2)c1 [Compound 34]	−3.2

SMILES	pSI (pCC50-pIC50)
N#C/C=C/c1ccc(Nc2ccnc(Nc3ccc(C#N)cc3)n2)c(Br)c1 [Compound 244]	−5.2
C/C(C#N)=C\c1cc(C)c(Oc2ccnc(Nc3ccc(C#N)cc3)n2)c(C)c1 [Compound 179]	<−4.9
CC(=CC#N)c1ccc(Oc2ccnc(Nc3ccc(C#N)cc3)n2)c(C)c1 [Compound 232]	<−4.4
Cc1cc(CC(C)C#N)ccc1Oc1ccnc(Nc2ccc(C#N)cc2)n1 (stereo not shown) [Compound 236]	<−4.8
CO/N=C(\c1cc(C)c(Nc2ccnc(Nc3ccc(C#N)cc3)n2)c(C)c1)C(C)C [Compound 9]	−4
COc1cc(/C=C/C#N)ccc1Nc1ccnc(Nc2ccc(C#N)cc2)n1 [Compound 245]	−4.8
Cc1cc(/C=C/C(=O)N(C)CCC#N)cc(C)c1Oc1ccnc(Nc2ccc(C#N)cc2)n1 [Compound 214]	−3.5
CC/C(=C\C#N)c1cc(C)c(Nc2ccnc(Nc3ccc(C#N)cc3)n2)c(C)c1 [Compound 148]	−3.9
Cc1cc(/C=C/C(=O)N(C)CC#N)cc(C)c1Oc1ccnc(Nc2ccc(C#N)cc2)n1 [Compound 212]	−4.1
Cc1cc(/C=C(\C#N)c2cccs2)cc(C)c1Nc1ccnc(Nc2ccc(C#N)cc2)n1 [Compound 49]	−3.2
Cc1cc(-n2cccc2)cc(C)c1Oc1ccnc(Nc2ccc(C#N)cc2)n1 [Compound 118]	<−4.1
Cc1cc(CN2CCSC2)cc(C)c1Nc1ccnc(Nc2ccc(C#N)cc2)n1 [Compound 78]	−3.5
Cc1cc(/C=C/C(=O)N2CC=CC2)cc(C)c1Oc1ccnc(Nc2ccc(C#N)cc2)n1 [Compound 209]	−3.7
Cc1cc(C(O)CC#N)cc(C)c1Nc1ccnc(Nc2ccc(C#N)cc2)n1 (stereo not shown) [Compound 18]	−4.0
Cc1cc(CCC#N)cc(C)c1Nc1ccnc(Nc2ccc(C#N)cc2)n1 [Compound 24]	−3.4
Cc1cc(Cn2ccnc2)cc(C)c1Nc1ccnc(Nc2ccc(C#N)cc2)n1 [Compound 70]	−3.3
CCN(Cc1ccncc1)Cc1cc(C)c(Nc2ccnc(Nc3ccc(C#N)cc3)n2)c(C)c1 [Compound 79]	−2.7
Cc1cc(-c2ccsc2)cc(C)c1Nc1ccnc(Nc2ccc(C#N)cc2)n1 [Compound 21]	−3.5
Cc1cc(/C=C/C(=O)N2CCN(C)CC2)cc(C)c1Nc1ccnc(Nc2ccc(C#N)cc2)n1 [Compound 155]	−2.5
Cc1cc(C=CC#N)cc(C)c1Oc1ccnc(Nc2ccc(C#N)cc2)n1 [Compound 25]	−5
